Data from patent US10046060B2, “Co-administration of an agent linked to an internalization peptide with an anti-inflammatory” (NoNO Inc., priority 2007, dated 2018).
Entries after “also recorded” stand apart in the source; their conditions may differ. Ends that are not written are not given here.

Columns and labels:
Beagle dogs [1] = experiment: GLP cardiovascular telemetry study, escalating doses (CRM Study No. 691106); assay type: in vivo, dog
Description: In a GLP cardiovascular telemetry study in unrestrained conscious Beagle dogs (CRM Study No. 691106), 6 animals (3 males, 3 females) were administered escalating doses of Tat-NR2B9c (0.25, 1.0, or 5.0 mg/kg gross peptide), with a washout period of 3 days between dose levels. […] Moreover, the time-frame between the low dose (0.25 mg/kg) and the high dose (5.0 mg/kg) was about 6 days, i.e., of insufficient duration to allow the generation of an immune response. The effect is thus caused by a direct degranulation of mast cells causing histamine release.

[2] = Maximum Tolerated Dose in preclinical animal trials, rats; conditions: rat, in vivo
Beagle dogs [3] = experiment: GLP cardiovascular telemetry study at 10 mg/kg (CRM Study No. 691429); assay type: in vivo, dog
Description: To obtain detailed cardiovascular information at the highest dose level tested in the 14-day dog repeated-dose toxicity study (i.e., 10 mg/kg), an additional GLP cardiovascular telemetry study in unrestrained, conscious, Beagle dogs was performed (CRM Study No. 691429). Six animals (3 males, 3 females) received vehicle in the morning and 10 mg/kg Tat-NR2B9c in the afternoon of the same day (at least 4 hours between doses). […] The female animals used in this additional cardiovascular study were obtained from the Charles River colony and were non-nave animals that had been previously used in the first cardiovascular study for Tat-NR2B9c (CRM Study No. 691106).

Beagle dogs [4] = experiment: Non-GLP dose range study, single slow intravenous injection; assay type: in vivo, dog; conditions: for Severity of angio-neurotic oedema and urticaria: 12.5 mg/kg
Description: A non-GLP study was conducted to examine a dose range for Tat-NR2B9c, administered to Beagle dogs by a single, slow intravenous injection. Two animals (one male and one female Beagle dog) were dosed intravenously with Tat-NR2B9c on seven occasions. There was a 3-4 day wash-out period between the doses. The first dose was given at 2.5 mg/kg. […] There was no reaction in the female dog. […] The third dose was given at 12.5 mg/kg. […] The reaction in the male dog was assessed to be moderate, and in the female animal, the reaction was mild. The next dose was set at 20.0 mg/kg. […] The animal was treated with i.v. administration of benadryl and dexamethasone. BP at 5 minutes post-dosing was recorded as 37/13 mm Hg (nomial BP in a dog is ˜160/90). A decision was made not to dose the female animal.
The next doses were given in order to better understand the type of reactions seen in preceding doses. The fifth and sixth doses were set at 2.5 and 5.0 mg/kg.

[5] = Maximum Tolerated Dose in preclinical animal trials, dogs; conditions: dog, in vivo
humans = experiment: Safety, Tolerability and Pharmacokinetic Study in humans: adverse events; assay type: in vivo, human
Description: We carried out a Safety, Tolerability and Pharmacokinetic Study of Tat-NR2B9c in humans. Subjects were either normal, healthy, non-smoking males or post-menopausal or surgically sterile female subjects with a minimum age of 18 years. The subjects were either administered Tat-NR2B9c, Lot #: 124-134-001B, or were given placebo (Phosphate Buffered Saline), Lot #: 124-134-001A, administered as an intravenous infusion (10±1 minutes). Four subjects were dosed in each of Cohorts 1 to 3, and 10 subjects were dosed in each of Cohorts 4 to 8. All 62 subjects completed the study. Treatment periods for each cohort were as follows: Cohort 1: Sep. 14, 2006; Cohort 2: Sep. 26, 2006; Cohort 3: Oct. 6, 2006; Cohort 4: Oct. 20, 2006; Cohort 5: Nov. 6, 2006; Cohort 6: Dec. 4, 2006; Cohort 7: Dec. 17, 2006; Cohort 8: Feb. 25, 2007.
The safety assessment was performed on all subjects who received at least 1 dose during the course of the study. The incidents of all adverse events (AEs) were tabulated by treatment and subject number. Absolute values for vital signs, electrocardiogram (ECG) parameters, laboratory parameters and physical examinations were also documented and values outside the nomial range were flagged. Shifts from baseline values were tabulated. AEs were documented using investigator and Medical Dictionary for Regulatory Activities (MedDRA) terms.

rats = experiment: Mean arterial pressure (MAP) in rats after Tat peptides with or without anti-inflammatory agents; conditions: 7.5 mg/kg bolus; FIG. 7
Sprague-Dawley rats = experiment: Non-GLP blood pressure study in anesthetized rats at 50 mg/kg; assay type: in vivo, rat
Description: In one experiment, 5 male Sprague-Dawley rats received a 50 mg/kg Tat-NR2B9c bolus dose over 3 minutes. Blood pressure was monitored via a femora arterial catheter.

Beagle dogs [6] = experiment: GLP 14-day intravenous toxicity study (CRM Study No. 501448): clinical signs and plasma histamine; assay type: in vivo, dog
Description: Blood samples (approximately 1 mL) were collected from all animals on Days 1, 6 and 12 at predose, 5 and 15 minutes post injection. Blood samples were collected by venipuncture (jugular, saphenous and cephalic) into tubes containing EDTA. The samples were then centrifuged (within 30 minutes of collection) in a refrigerated centrifuge (ca. 4° C.) at 2700 rpm for 10 minutes. Plasma were separated into a second tube with the appropriate label and stored at −80° C. until analysis at CRM. Plasma samples were used for investigating histamine levels. Samples from animals dosed intravenously with Tat-NR2B9c were analyzed using a validated method.

YGRKKRRQRRRKLSSIESDV [Tat-NR2B9c]
Dogs with transient drop in blood pressure (Beagle dogs [1]; 5 mg/kg): 4 of 6
Duration of transient drop in blood pressure (Beagle dogs [1]; 5 mg/kg): approximately 30 minutes
Effects on blood pressure (Beagle dogs [1]; 0.25 or 1.0 mg/kg): No effects
MTD [2]: 100 mg/kg
Time post-dose over which increases in heart rate were observed (Beagle dogs [3]): up to 15 minutes
Decreases in blood pressure values (Beagle dogs [3]; individual animals at 5 to 10 minutes post-dose): up to 62%
Time of maximum effect on heart rate (Beagle dogs [3]; males and females): 10 min
Reaction (Beagle dogs [4]; 5.0 mg/kg, female dog): no reaction
Reaction (Beagle dogs [4]; 5.0 mg/kg, male dog): moderate reaction
Vital signs (heart rate, blood pressure, respiratory rate and body temperature) (Beagle dogs [4]; 7.5 mg/kg, both animals): stayed within the normal physiological ranges
Reaction (Beagle dogs [4]; 7.5 mg/kg, female dog): no reaction
Reaction (Beagle dogs [4]; 7.5 mg/kg, male dog): angio-neurotic edema of the soft tissue of the head and urticaria type of reaction
Severity of angio-neurotic oedema and urticaria (Beagle dogs [4]; female dog): mild
Severity of angio-neurotic oedema and urticaria (Beagle dogs [4]; male dog): moderate
Reaction (Beagle dogs [4]; 20.0 mg/kg, male dog): went into shock
Blood pressure at 5 minutes post-dosing (Beagle dogs [4]; 20.0 mg/kg, male dog, treated with benadryl and dexamethasone): 37/13
Adverse reactions (Beagle dogs [4]; fifth dose 2.5 mg/kg): reddening of ear and face of the male dog
Signs of toxicity (Beagle dogs [4]; first dose 2.5 mg/kg, male and female dog): did not show any signs of toxicity
Conclusion of dose range study (Beagle dogs [4]; high doses): capable of inducing profound transient hypotension and urticaria-like skin reactions
MTD [5]: 12.5 mg/kg
AEs of the higher doses at the lower dose range (humans; 0.02 to 1.50 mg/kg): minimal or not present
Incidence of AEs vs lower dose groups and placebo (humans; 2.60 and 3.75 mg/kg dose groups): significantly more AEs; also recorded: higher
Serious Adverse Events (humans; all doses): No Serious Adverse Events (SAEs) were reported
Active treatment subjects with at least 1 AE (humans; all doses 0.02-3.75 mg/kg): 73.9%
Doses at which several AEs were frequently reported (humans; decreased blood pressure, paraesthesia, hypoaesthesia, erythema, rash, pruritus, dry mouth, nausea, feeling hot, flushing): ≥ 2.60 mg/kg
Subjects feeling hot (humans; subjects receiving Tat-NR2B9c): 28.3%
Subjects feeling hot (count) (humans; subjects receiving Tat-NR2B9c): 13/46
Subjects with dry mouth (humans; subjects receiving Tat-NR2B9c): 19.6%
Subjects with dry mouth (count) (humans; subjects receiving Tat-NR2B9c): 9/46
Subjects with flushing (humans; subjects receiving Tat-NR2B9c): 21.7%
Subjects with flushing (count) (humans; subjects receiving Tat-NR2B9c): 10/46
Subjects with pruritis (humans; subjects receiving Tat-NR2B9c): 26.1%
Subjects with pruritis (count) (humans; subjects receiving Tat-NR2B9c): 12/46
Effect on MAP (printed MAT) after injection (rats): rapid and transient reduction; also recorded: reduction in blood pressure
Mean arterial pressure (Sprague-Dawley rats; 50 mg/kg bolus over 3 minutes, all animals, FIG. 6): transient reductions in mean arterial pressure; also recorded: drop in blood pressure
Respiratory effects (Sprague-Dawley rats; rat, 50 mg/kg): decreased tidal volume, respiratory rate and derived minute volume
Lethargy and unpalpable pulse as characterized by attending veterinarian (Beagle dogs [6]; 10 mg/kg daily i.v.): severe hypotensive reaction
Clinical signs (Beagle dogs [6]; 10 mg/kg daily i.v., 14 days, all animals): treatment-related clinical signs
Change of histamine levels during 14-day repeated dosing (Beagle dogs [6]; any dose level): no consistent increase in histamine levels
Plasma histamine levels (Beagle dogs [6]; immediately following the first administration, naive dogs): increased histamine levels
